One series concerns LRSA202. Kind of series: In vivo pharmacodynamics evaluation in infected mice. The conditions noted are these: BALB/c mice infected retroorbitally with LRSA202. The procedure: (§1) Compound IA-25 was used as a representative compound. The laboratory SPF-grade female BALB/c mice were purchased from Shanghai Jiesijie Laboratory Animal Co., Ltd. and bred under aseptic condition to 6-8 weeks old. The S. aureus strains which had been cultured overnight were transferred to fresh and sterile TSB medium and cultured at 37° C. and 250 rpm for 3 h to exponential growth phase; the culture was washed twice with PBS buffer, and then suspended in PBS for later use. In the mouse infection assay, the mice were divided into several groups, each containing 10 mice.

The next series has as its system LRSA56. Described as above. The conditions noted are these: BALB/c mice infected retroorbitally with LRSA56. The procedure: as §1
The next series deals with Mu50. Described as above. The conditions noted are these: BALB/c mice infected retroorbitally with Mu50. On the procedure:
as §1

Another series deals with NF65Y. Described as above. The conditions noted are these: BALB/c mice infected retroorbitally with NF65Y. The procedure: as §1
The subject of another series is NRS108. The description is as above. The conditions noted are these: BALB/c mice infected retroorbitally with NRS108. The procedure: as §1
The subject of a further series is NRS271. The series is described as above. The conditions noted are these: BALB/c mice infected retroorbitally with NRS271. The procedure: as §1
The test system of another series is strain Newman. Described as above. The conditions noted are these: BALB/c mice infected retroorbitally with Newman. On the procedure:
as §1

The subject of a further series is HepG2. The series is described as follows: In vitro cytotoxicity assay.
In another series the test system is HEK293. Kind of series: In vitro cytotoxicity assay.
In the next series the test system is Trichophyton rubrum. The series is described as follows: In vitro antifungal assay (micro liquid-based dilution). The conditions noted are these: read-out: Antifungal Activities, MIC80. Format: cell-based.
For the next series, the system named is Microsporum gypseum. Described as above. Format: cell-based. The conditions noted are these: Nannizzia gypsea, read-out: Antifungal Activities, MIC80.
Another series concerns Tinea barbae. The description is as above. Format: cell-based. The conditions noted are these: read-out: Antifungal Activities, MIC80.
For another series, the target named is CYP enzyme subtype 2C19 (Homo sapiens, UniProt P33261). The series is described as follows: Inhibition assay on hepatic CYP450 enzyme. Format: in vitro ADME. The conditions noted are these: CYP 2C19; read-out: Half inhibitory concentration (IC50).
Chain of CYP enzyme subtype 2C19 (P33261 whole entry): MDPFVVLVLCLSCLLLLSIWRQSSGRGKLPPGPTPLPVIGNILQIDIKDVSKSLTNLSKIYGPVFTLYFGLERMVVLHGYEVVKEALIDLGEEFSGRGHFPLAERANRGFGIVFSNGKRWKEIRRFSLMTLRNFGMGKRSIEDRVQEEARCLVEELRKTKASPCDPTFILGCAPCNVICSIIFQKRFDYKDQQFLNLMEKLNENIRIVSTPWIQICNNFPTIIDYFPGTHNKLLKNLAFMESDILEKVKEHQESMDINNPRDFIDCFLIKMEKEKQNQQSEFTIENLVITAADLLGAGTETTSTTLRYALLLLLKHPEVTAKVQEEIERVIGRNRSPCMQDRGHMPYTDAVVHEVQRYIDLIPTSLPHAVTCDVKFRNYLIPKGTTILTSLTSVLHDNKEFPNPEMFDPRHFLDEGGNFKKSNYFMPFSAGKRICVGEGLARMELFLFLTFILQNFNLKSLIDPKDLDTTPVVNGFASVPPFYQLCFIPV
The subject of series [1] is Staphylococcus aureus subsp. aureus str. strain Newman. Kind of series: Preliminary screening assay of inhibition of staphyloxanthin synthesis. The conditions noted are these: 50, 10, 5, 2.5, 1.25, 0.625, 0.3125 and 0 μM from left to right. In kind it is cell-based. The procedure:
Strains used for assay: freshly activated wild-type Staphylococcus aureus subsp. aureus str. strain Newman and its homologous mutant strain having crtN insertion (without staphyloxanthin synthesis).
Medium for assay: Tryptone Soy broth (TSB), a product from Oxid Corporation, the United Kingdom, which was formulated with distilled water, sterilized at 121° C. for 15 min for later use.
Method of Preliminary Screening Assay:
(1) Preparation of compound: the compound of the invention was dissolved in dimethyl sulfoxide (DMSO) to prepare a stock solution having a concentration of 10 mM; 400 μL of DMSO was added to 100 μL of the stock solution to get a dilution with a concentration of 2 mM; 250 μL (2 mM) of the dilution was taken after mixing, and an equal amount of DMSO was added thereto for 2-fold dilution to get a solution with a concentration of […] for later use.
(2) Culture of the strain: single colonies of strain Newman were picked from TSA plates into a test tube containing 4 mL of sterile TSB medium, and cultured at 37° C. and 250 rpm for 12 h for later use.

The subject of a further series is S. aureus strain Newman. The series is described as follows: IC50 determination of inhibition of staphyloxanthin synthesis. In kind it is cell-based. The conditions noted are these: Staphylococcus aureus; S. aureus strain Newman, Table 1; read-out: IC50, inhibitory activity on staphyloxanthin synthesis. On the procedure:
Selection of compound concentrations: based on the preliminary screening results, the ability of each compound to inhibit staphyloxanthin synthesis was determined. […] According to the assay results, 10 different concentration gradients were designed for each compound, such that the ability to inhibit staphyloxanthin synthesis comprised substantially from 0% to 100%.
Culture of the strains: single colonies of strain Newman and crtN mutant strain were picked from TSA plates, added into test tubes containing 4 mL of sterile TSB medium, and cultured at 37° C. and 250 rpm for 12 h for later use.
The relative level of staphyloxanthin synthesis at each concentration of the compound of the invention=A450 (sample)/A450 (negative control)*100%. With the molar concentration of the compound as the abscissa and the relative level of staphyloxanthin synthesis as the ordinate, a curve fitting of inhibitor concentration-inhibition rate (log(inhibitor) vs response) was performed in Graphpad prism 5.0 software, and the IC50 of the compound for inhibiting staphyloxanthin synthesis was calculated by software based on the fitting results.
S. aureus was selected for IC50 determination with respect to activity of inhibiting staphyloxanthin synthesis. […]

For series [2], the system named is wild-type S. aureus Newman strain. The series is described as follows: Verification assay using CrtN as a target (HPLC of carotenoid extract). Format: cell-based, Staphylococcus aureus. The conditions noted are these: 100 μM added to wild-type strain Newman, 440 nm.

In brackets after ≈: the same amount, converted by molar mass. Counter-ions that a name gives are not always drawn.

On to `CC(=O)NC[C@H]1CN(c2ccc(N3CCOCC3)c(F)c2)C(=O)O1` [Linezolid], for which the “Viable colony counts in vivo” value in the series with LRSA202 was 4.6 Log10CFU; in the series on LRSA56 it was 4.6 Log10CFU; in the series with Mu50, 3.1 Log10CFU; with NF65Y, 5.1 Log10CFU; with NRS108, 2.3 Log10CFU; with NRS271, 8.3 Log10CFU. The “Viable colony counts in vivo” value in the series with strain Newman was found to be 4.9 Log10CFU.
Regarding `C[C@@H]1[C@H](O)[C@@H](C)/C=C/C=C/C=C/C=C/C=C/C=C/C=C/[C@H](O[C@@H]2O[C@H](C)[C@@H](O)[C@H](N)[C@@H]2O)C[C@@H]2O[C@](O)(C[C@@H](O)C[C@@H](O)[C@H](O)CC[C@@H](O)C[C@@H](O)CC(=O)O[C@H]1C)C[C@H](O)[C@H]2C(=O)O` [Amphotericin B], the “CC50 of compounds on cells” value in the series with HepG2 is 2.956 µg/mL; in the series on HEK293, 3.923 µg/mL.
Usually MIC80 stands for the lowest concentration that inhibits either 80% of growth or 80% of the strains tested, depending on the study. On to `C[C@@H](c1ncncc1F)[C@](O)(Cn1cncn1)c1ccc(F)cc1F` [Voriconazole], for which the MIC80 in the series on Trichophyton rubrum came out at 0.0312 µg/mL (≈ 0.0895 µM); in the series with Microsporum gypseum, 0.25 µg/mL (≈ 0.716 µM); in the series on Tinea barbae it was 0.0312 µg/mL (≈ 0.0895 µM).
Regarding `COc1ccc2[nH]c([S+]([O-])Cc3ncc(C)c(OC)c3C)nc2c1` (centres unmarked) [omeprazole, reference compound], the IC50 at CYP enzyme subtype 2C19 is 3880 nM.
Consider `OC(Cn1cncn1)(Cn1cncn1)c1ccc(F)cc1F` [Fluconazole], for which the results for the MIC80 in the series with Trichophyton rubrum, in the series with Microsporum gypseum and in the series on Tinea barbae were 1 µg/mL (≈ 3.27 µM), 8 µg/mL (≈ 26.1 µM) and 2 µg/mL (≈ 6.53 µM), respectively.
Take `CN[C@H](CC(C)C)C(=O)N[C@H]1C(=O)N[C@@H](CC(N)=O)C(=O)N[C@H]2C(=O)N[C@H]3C(=O)N[C@H](C(=O)N[C@H](C(=O)O)c4cc(O)cc(O)c4-c4cc3ccc4O)[C@H](O)c3ccc(c(Cl)c3)Oc3cc2cc(c3O[C@@H]2O[C@H](CO)[C@@H](O)[C@H](O)[C@H]2O[C@H]2C[C@](C)(N)[C@H](O)[C@H](C)O2)Oc2ccc(cc2Cl)[C@H]1O` [Vancomycin]: the “Viable colony counts in vivo” value is given as 5.3 Log10CFU in the series with LRSA202; 3.8 Log10CFU in the series on LRSA56; 5.4 Log10CFU in the series on Mu50; 4.6 Log10CFU in the series on NF65Y; 2.4 Log10CFU in the series on NRS108; 6.5 Log10CFU in the series with NRS271. The “Viable colony counts in vivo” value in the series with strain Newman is listed as 4.3 Log10CFU.
Consider `CN(Cc1coc2ccccc12)C[C@@H]1C[C@H]1c1ccc(-c2ccccc2)cc1` [Compound IC-1, 1-((1R,2R)-2-([1,1′-biphenyl]-4-yl)cyclopropyl)-N-(benzofuran-3-ylmethyl)-N-methylmethanamine], for which the “colors in final photograph of inhibition of staphyloxanthin synthesis” value in series [1] was “white to yellow from left to right gradually”. For the same molecule, the IC50 in the series with S. aureus strain Newman is over 1000 nM.
For the molecule `CN(C/C=C/c1ccccc1)Cc1cccc2ccccc12` [naftifine hydrochloride, reference compound], the “HPLC absorption peaks of carotenoid extract” value in [2] is given as “absorption peaks at the original peak position disappeared again”.
Regarding `CC(=O)N1CCN(c2ccc(OCC3COC(Cn4ccnc4)(c4ccc(Cl)cc4Cl)O3)cc2)CC1` (centres unmarked) [Ketoconazole], the values for the MIC80 in the series on Trichophyton rubrum, with Microsporum gypseum and with Tinea barbae were 0.5 µg/mL (≈ 0.941 µM), 2 µg/mL (≈ 3.76 µM) and 0.0625 µg/mL (≈ 0.118 µM), respectively.
For `COc1ccc(/C=C/CN(C)Cc2coc3ccccc23)c(F)c1` [Compound IA-35, (E)-N-methyl-N-[(benzofuran-3-yl)methylene]-3-(2-fluoro-4-methoxyphenyl)-prop-2-en-1-amine], in the series with S. aureus strain Newman, the IC50 was over 1000 nM.
In the case of `FC(F)(F)c1ccc(/C=C/CNCc2coc3ccccc23)cc1` [Compound IB-1], in the series on S. aureus strain Newman, the IC50 was over 1000 nM.
Turning to `CN(C/C=C/c1ccccc1F)Cc1coc2ccccc12` [Compound IA-28, (E)-N-methyl-N-[(benzofuran-3-yl)methylene]-3-(2-fluorophenyl)-prop-2-en-1-amine], the IC50 in the series on S. aureus strain Newman was over 1000 nM.
For the molecule `CN(C/C=C/c1ccc(C(F)(F)F)cc1)Cc1cc2ccccc2s1` [Compound IF-2, (E)-N-(benzo[b]thiophen-2-ylmethyl)-N-methyl-3-(4-(trifluoromethyl)phenyl)prop-2-en-1-amine], the IC50 in the series with S. aureus strain Newman is 95.3 ± 1.6 nM.
For the molecule `CN(C/C=C/c1ccc(Cl)cc1)Cc1coc2ccccc12` [Compound IA-3, (E)-N-methyl-N-[(benzofuran-3-yl)methylene]-3-(4-chlorophenyl)prop-2-en-1-amine], the IC50 with S. aureus strain Newman amounted to 4.9 ± 0.1 nM.
Still for that read-out and setting: the result for `CN(CC#Cc1ccc(-c2ccccc2)cc1)Cc1coc2ccccc12` [Compound ID-1] reads over 1000 nM; that for `CN(C/C=C/c1ccc(Br)cc1)Cc1coc2ccccc12` [Compound IA-5, (E)-N-methyl-N-[(benzofuran-3-yl)methylene]-3-(4-bromophenyl)prop-2-en-1-amine], 2.5 ± 0.3 nM; that for `CN(C/C=C/C=C/c1ccc(-c2ccccc2)cc1)Cc1coc2ccccc12` [Compound IA-39, (2E,4E)-5-([1,1′-biphenyl]-4-yl)-N-(benzofuran-3-ylmethyl)-N-methylpenta-2,4-dien-1-amine], over 1000 nM.
For `CN(C/C=C/c1ccc(C(F)(F)F)cc1)Cc1coc2ccccc12` [Compound IA-2, (E)-N-methyl-N-[(benzofuran-3-yl)methylene]-3-(4-trifluoromethylphenyl)-prop-2-en-1-amine], in the series with S. aureus strain Newman, the IC50 is 9.8 ± 0.3 nM.
`CCOc1ccc(/C=C/CN(C)Cc2coc3ccccc23)cc1` [Compound IA-17, (E)-N-methyl-N-[(benzofuran-3-yl)methylene]-3-(4-ethoxyphenyl)-prop-2-en-1-amine]: the IC50 in the series on S. aureus strain Newman is over 1000 nM.
Still for that read-out and setting: the figure for `CN(C/C=C/c1ccc(C(F)(F)F)cc1)Cc1csc2ccccc12` [Compound IA-41, (E)-N-(benzo[b]thiophen-3-ylmethyl)-N-methyl-3-(4-(trifluoromethyl)phenyl)prop-2-en-1-amine] is 52.1 ± 0.8 nM; for `Cc1ccc(/C=C/CN(C)Cc2coc3ccccc23)cc1` [Compound IA-21, (E)-N-methyl-N-[(benzofuran-3-yl)methylene]-3-(4-methylphenyl)-prop-2-en-1-amine] it is 9.9 ± 1.8 nM.
Take `COc1ccc(/C=C/CN(C)Cc2coc3ccccc23)cc1F` [Compound IA-38, (E)-N-methyl-N-[(benzofuran-3-yl)methylene]-3-(3-fluoro-4-methoxyphenyl)-prop-2-en-1-amine]: the IC50 with S. aureus strain Newman is over 1000 nM.
With `COc1cccc(/C=C/CN(C)Cc2coc3ccccc23)c1` [Compound IA-20, (E)-N-methyl-N-[(benzofuran-3-yl)methylene]-3-(3-methoxyphenyl)-prop-2-en-1-amine], the IC50 with S. aureus strain Newman was over 1000 nM.
As to `CN(C/C=C/c1ccc(C(F)(F)F)c(F)c1)Cc1coc2ccccc12` [Compound IA-9, (E)-N-methyl-N-[(benzofuran-3-yl)methylene]-3-(3-fluoro-4-trifluoromethyl-phenyl)prop-2-ene-1-the amine], the IC50 with S. aureus strain Newman was over 1000 nM.

(Values after patent US10829464B2, “Benzoheterocyclic alkylamine compounds and use thereof” (priority 2016, dated 2020).)
